Non-standard residues stand in square brackets, D forms with d. Residues, ends and D or L forms follow the SMILES beside them.

Data set [1] has as its system N2a-Tau^RDΔK cells. The experiment in a line: MTT cytotoxicity of the peptides alone. In kind it is cell-based. The note with it: 25, 50, 100, 250 μM peptide, 24 h, n = 3. As to the method: Cell viability was analyzed in accordance with the manufacturer’s protocol (Roche Diagnostics, Mannheim, Germany; cell proliferation kit II (MTT)). This assay is based on the cleavage of the yellow tetrazolium salt MTT into purple formazan dye by metabolic active cells. The color changes only in viable cells and can be directly quantified using a scanning multiwell spectrophotometer. In all experiments, the cells were grown as described previously. The cells (25,000 cells/well or 80% confluence) were plated on poly D-lysine-coated 96-well plates (Greiner Bio-One GmbH, Frickenhausen, Germany) for stronger attachment from overnight to 24 h at 37 °C. Fibrillized Tau^RDΔK was generated by incubating 200 μM Tau^RDΔK in BES buffer at 37 °C for 24 h in the presence of 2 mM D-peptides (Tau^RDΔK:peptide = 1:10). Successful fibrillization was verified using ThS (5 μM Tau^RDΔK, 10 μM ThS) measurement. The aggregated Tau^RDΔK (10 μM final concentration), Tau^RDΔK (10 μM) + peptide (100 μM) samples (ISAD1 and ISAD1rev), buffer only (negative control, set to 100% cell viability), and TritonX-100 (2%, cytotoxic agent, positive control) were incubated on N2a-Tau^RDΔK cells (100 μl solution) for another 24 h. The cell viability was measured in accordance with the manufacturer’s protocol.
A MTT-based cytotoxicity assay in the presence of ISAD1 and ISAD1rev peptides. […]

Data set [2] addresses T1, Tau^FL-P301L (Homo sapiens, UniProt P10636, P618L).
T1 construct: Tau^FL-P301L Full-length Tau mutant P301L
The experiment in a line: Fibrillization of Tau^FL-P301L monitored by ThS assay. Format: biochemical. The conditions noted are these: Tau:peptide = 1:1; 1:5; 1:10. As to the method:
For Tau fibrillization inhibition assays, 10 μM Tau mutant protein (Tau^RDΔK, Tau^FLΔK, Tau^FL-A152T, Tau^FL-P301L) was incubated in BES buffer (N,N-bis(2-hydroxyethyl)-2-aminoethanesulfonic acid, pH 7) in the presence of 2.5 μM heparin at 37 °C for 24 h with and without novel D-peptides (ISAD1 and ISAD1rev) at different concentrations (1 nM to 200 μM). Final concentration of 20 μM ThS was used for monitoring fibrillization. The assay was performed with 40-μl sample volume per well in a 384-well microtiter plate (Thermo LabSystems, Dreieich, Germany). The fibrillization of Tau was monitored by ThS and the relative fluorescence intensity of ThS was read out at 440 excitation/521 emission nm in a Tecan micro titer plate reader (Tecan, Männedorf, Switzerland).

For data set [3], the system named is N2a-Tau^RDΔK cells. Nature of the data set: LDH release, intracellularly expressed Tau^RDΔK (Dox induced). Format: cell-based. The conditions noted are these: 1 μg/ml doxycycline, peptide 25, 50, 100, 250 μM, n = 2. Here is the method: (§1) After the N2a-Tau^RDΔK cells reached the desired confluence (25,000 cells/well or 80%), intracellular Tau^RDΔK expression was induced by the addition of 1 μg/ml Dox. The cells were plated on poly D-lysine-coated 96-well plates (Greiner Bio-One GmbH, Frickenhausen, Germany) and treated with ISAD1 and ISAD1rev in a concentration range of 25 to 250 μM. TritonX-100 (2%) was used as a positive control. The incubation and Tau^RDΔK expression time was 72 h. Following incubation, cell viability was studied by measuring MTT and LDH release in accordance with the manufacturer’s protocol.
(In general: LDH in the medium is a marker of cell lysis.)

Data set [4] deals with N2a-Tau^RDΔK cells. The experiment in a line: ROS measurement (DCF), externally added Tau^RDΔK aggregates. In kind it is cell-based. The note with it: 10 μM Tau, 100 μM peptide final, pre-incubated, 30 min, n = 3. Here is the method:
Toxic Tau oligomers and fibrils can induce the production of superoxides and peroxy radicals in cells which can be measured with fluorescent dye dichlorodihydrofluorescein (DCF). N2a-Tau^RDΔK cells were plated on D-lysine-coated 96-well plates. At 70 to 80% confluence, the cells were washed once with warm PBS and then incubated with 20 μM of DCF (Abcam, Cambridge, UK) diluted in 1X dilution buffer for 30 min at 37 °C. After 30 min, the cells were washed once with 1X PBS. After washing, the cells were incubated with desired concentrations of different samples (10 μM oligomers/fibrils ± treated with 100 μM D-peptides or controls) for 30 min. The cytotoxic agent TBHP (tert-butylhydroperoxide) was used as the positive control. The fluorescence intensity was measured using a spectrofluorometer (Tecan, Männedorf, Switzerland; excitation at 485 nm and emission at 535 nm).

The subject of data set [5] is N2a-Tau^RDΔK cells. The experiment in a line: MTT, intracellularly expressed Tau^RDΔK (Dox induced). In kind it is cell-based. The conditions noted are these: 1 μg/ml doxycycline, 72 h, n = 2. Here is the method: as §1

T1 sequence (P10636 1-441 isoform P10636-8 P301L): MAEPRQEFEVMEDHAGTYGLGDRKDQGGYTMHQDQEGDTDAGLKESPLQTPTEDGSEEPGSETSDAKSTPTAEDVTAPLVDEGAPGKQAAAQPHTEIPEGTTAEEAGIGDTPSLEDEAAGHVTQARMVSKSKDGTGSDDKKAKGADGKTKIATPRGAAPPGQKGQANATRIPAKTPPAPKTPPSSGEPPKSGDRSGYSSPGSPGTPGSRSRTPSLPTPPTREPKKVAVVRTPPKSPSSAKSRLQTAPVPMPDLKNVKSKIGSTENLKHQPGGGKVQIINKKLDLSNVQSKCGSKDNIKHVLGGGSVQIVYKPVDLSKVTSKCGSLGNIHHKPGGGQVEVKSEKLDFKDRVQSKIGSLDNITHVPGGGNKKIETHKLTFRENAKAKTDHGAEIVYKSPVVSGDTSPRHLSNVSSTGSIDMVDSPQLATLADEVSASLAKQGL

Turning to `CC(C)C[C@@H](NC(=O)[C@@H](CO)NC(=O)[C@@H](CC(C)C)NC(=O)[C@H](NC(=O)[C@@H](CC(=O)O)NC(=O)[C@@H](C)NC(=O)[C@@H](C)NC(=O)[C@H](N)CO)[C@H](C)O)C(=O)N[C@H](CCCCN)C(=O)N[C@H](Cc1ccccc1)C(=O)N[C@@H](C(=O)N[C@H](CO)C(=O)O)C(C)C` [ISAD1rev] (H-[dS][dA][dA][dD][dT][dL][dS][dL][dK][dF][dV][dS]-OH; N-terminus and C-terminus assumed), the “Cytotoxicity, MTT” value in data set [1] was “do not induce toxic effects”. In addition, the “Inhibition of Tau^FL-P301L fibrillization, in words” value in data set [2] is on record as “weak inhibitory effects”. Also, in data set [3], the “Effect on LDH release of cells expressing Tau^RDΔK” value was “Protection of cell membrane integrity”. Also, the “Effect on toxicity of Tau aggregates, ROS level” value in data set [4] was “reducing intracellular ROS levels”. The “Cell viability at 50 μM peptide” value in data set [5] was “no increase in cell viability”.

The values are drawn from publication PMC8783508, “A novel D-amino acid peptide with therapeutic potential (ISAD1) inhibits aggregation of neurotoxic disease-relevant mutant Tau and prevents Tau toxicity in vitro” (Alzheimer's Research & Therapy, 2022).
